Data: patent US9822147B2, “Methods of treating ophthalmic diseases using NPR-B agonists” (priority 2009, dated 2017)
Numbered stars: 1 amine (or outer) side, 2 acyl side, 3 side chain; on linkers, the order of the positions; unused ones are H or OH. Square brackets hold non-standard residues; d marks the D form. Peptide text beside a SMILES is read from it. * marks the point of attachment. X5 = NCCC(=O)N[C@@H]1C[C@@H](C(=O)[*:2])N([*:1])C1; Phe(3,4-Cl2) = N[C@@H](Cc1ccc(Cl)c(Cl)c1)C(=O)O; X3 = NCCN[C@@H]1C[C@@H](C(=O)[*:2])N([*:1])C1; Phe(3-Cl) = N[C@@H](Cc1cccc(Cl)c1)C(=O)O; Phe(4-Me) = Cc1ccc(C[C@H](N)C(=O)O)cc1; Pro(4R-NH2) = N[C@H]1CN[C@H](C(=O)O)C1; dLys(Me2) = CN(C)CCCC[C@@H](N)C(=O)O; Gly(cPent) = N[C@H](C(=O)O)C1CCCC1; X2 = O=C([C@H]1CCCN([*:1])C1)[*:2]; Hyp = O=C(O)[C@@H]1C[C@@H](O)CN1; Aoc(2) = CCCCCC[C@H](N)C(=O)O; NHcycloheptyl = C1CCCC(N*)CC1; NMeL = CN[C@@H](CC(C)C)C(=O)O; Octanoyl = CCCCCCCC(=O)*; Api = NC1(C(=O)O)CCNCC1; AEEA = NCCOCCOCC(=O)O

target: T1, NPR-B (Homo sapiens, UniProt P20594); assay: NPR-B induced production of cyclic GMP in human glaucoma trabecular meshwork cells (GTM-3); assay type: cell-based; conditions: group by EC50 and Emax (CNP = 100%); Table 4; read-out: Activity (group), NPR-B activation assayed with GTM-3 cells
T1 construct: a functional assay using endogenously NPR-B expressing GTM-3 cells; endogenous in cells; host or cells: GTM-3 (human glaucoma trabecular meshwork cells)
T1 sequence (P20594 23-1047): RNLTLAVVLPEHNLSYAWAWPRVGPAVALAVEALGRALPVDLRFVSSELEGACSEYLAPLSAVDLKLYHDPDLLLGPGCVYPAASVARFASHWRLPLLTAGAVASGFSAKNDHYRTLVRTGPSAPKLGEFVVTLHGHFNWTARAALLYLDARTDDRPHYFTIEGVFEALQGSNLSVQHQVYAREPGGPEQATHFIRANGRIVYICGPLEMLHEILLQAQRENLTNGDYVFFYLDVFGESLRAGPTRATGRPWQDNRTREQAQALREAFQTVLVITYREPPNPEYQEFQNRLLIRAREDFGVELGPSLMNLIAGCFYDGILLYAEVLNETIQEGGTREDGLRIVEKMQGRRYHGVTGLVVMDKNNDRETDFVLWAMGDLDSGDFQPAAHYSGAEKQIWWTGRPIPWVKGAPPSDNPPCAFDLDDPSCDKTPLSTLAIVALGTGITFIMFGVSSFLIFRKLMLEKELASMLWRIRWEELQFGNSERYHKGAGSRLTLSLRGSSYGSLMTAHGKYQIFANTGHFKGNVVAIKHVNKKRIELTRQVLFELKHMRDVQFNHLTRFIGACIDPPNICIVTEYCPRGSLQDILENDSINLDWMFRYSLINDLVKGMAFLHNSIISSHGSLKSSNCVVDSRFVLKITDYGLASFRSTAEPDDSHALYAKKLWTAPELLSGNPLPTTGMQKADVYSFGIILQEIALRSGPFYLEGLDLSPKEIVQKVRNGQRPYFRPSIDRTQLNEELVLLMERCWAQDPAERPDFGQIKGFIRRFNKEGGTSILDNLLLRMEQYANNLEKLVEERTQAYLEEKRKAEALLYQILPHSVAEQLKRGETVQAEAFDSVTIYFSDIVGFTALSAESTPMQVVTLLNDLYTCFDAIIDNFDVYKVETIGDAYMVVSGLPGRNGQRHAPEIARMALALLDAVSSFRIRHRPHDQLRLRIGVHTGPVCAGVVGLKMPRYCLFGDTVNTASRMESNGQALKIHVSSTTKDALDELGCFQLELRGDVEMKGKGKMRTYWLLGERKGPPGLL

SMILES	EC50
CCCCCCCC(=O)N[C@H](C)C(=O)N[C@@H](Cc1ccccc1)C(=O)N[C@H](CC(C)C)C(=O)N[C@@H](CC(C)C)C(=O)N1CCC[C@H]1C(=O)N(C)[C@@H](CC(C)C)C(=O)N[C@@H](CC(=O)O)C(=O)N[C@@H](CCCNC(=N)N)C(=O)N[C@H](C(N)=O)[C@@H](C)CC [JAL-1039, Occ-ala-Phe-leu-Leu-Pro-Nml-Asp-Arg-Ile-NH2] (HELM PEPTIDE1{[CCCCCCCC(=O)[*:2]].[dA].F.[dL].L.P.[meL].D.R.I.[am]}$$$$V2.0)	< 1 µM
CCCCc1cnc(N2CCC[C@H](C(=O)N[C@@H](Cc3ccccc3)C(=O)N[C@H](CC(C)C)C(=O)N[C@@H](CC(C)C)C(=O)N3C[C@H](O)C[C@H]3C(=O)N(C)[C@@H](CC(C)C)C(=O)N[C@@H](CC(=O)O)C(=O)N[C@@H](CCCNC(=N)N)C(=O)N[C@H](C(N)=O)[C@@H](C)CC)C2)s1 [JAL-1382, Sbt-Sni-Phe-leu-Leu-Hyp-Nml-Asp-Arg-Ile-NH2] (HELM PEPTIDE1{[CCCCc1cnc(N2CCC[C@H](C(=O)[*:2])C2)s1].F.[dL].L.[Hyp].[meL].D.R.I.[am]}$$$$V2.0)	< 1 µM
CCCCCCCC(=O)N1CCC[C@H](C(=O)N[C@@H](Cc2ccc(C)cc2)C(=O)N[C@H](CC(C)C)C(=O)N[C@@H](CC(C)C)C(=O)N2C[C@H](O)C[C@H]2C(=O)N(C)[C@@H](CC(C)C)C(=O)N[C@@H](CC(=O)O)C(=O)N[C@@H](CCCNC(=N)N)C(=O)N[C@H](C(N)=O)[C@@H](C)CC)C1 [JAL-1494, Occ-Sni-Pmf-leu-Leu-Hyp-Nml-Asp-Arg-Ile-NH2] (Octanoyl-[X2][Phe(4-Me)][dL]L[Hyp][NMeL]DRI-NH2)	< 1 µM
CCCCCCCC(=O)N1CCC[C@H](C(=O)N[C@@H](Cc2ccccc2)C(=O)N[C@H](CC(C)C)C(=O)N[C@@H](CC(C)C)C(=O)N2C[C@H](O)C[C@H]2C(=O)N[C@H](C(=O)N[C@@H](CC(=O)O)C(=O)N[C@@H](CCCNC(=N)N)C(=O)N[C@H](C(N)=O)[C@@H](C)CC)C2CCCC2)C1 [JAL-1626, Occ-Sni-Phe-leu-Leu-Hyp-Cpg-Asp-Arg-Ile-NH2] (Octanoyl-[X2]F[dL]L[Hyp][Gly(cPent)]DRI-NH2)	< 1 µM
CCCCCC[C@H](NC(=O)COCCOCCN)C(=O)N1CCC[C@H](C(=O)N[C@@H](Cc2ccccc2)C(=O)N[C@H](CC(C)C)C(=O)N[C@@H](CC(C)C)C(=O)N2C[C@H](O)C[C@H]2C(=O)N(C)[C@@H](CC(C)C)C(=O)N[C@@H](CC(=O)O)C(=O)N[C@@H](CCCNC(=N)N)C(=O)N[C@H](C(N)=O)[C@@H](C)CC)C1 [JAL-1808, H-Adx-Hgl-Sni-Phe-leu-Leu-Hyp-Nml-Asp-Arg-Ile-NH2] (H-[AEEA][Aoc(2)][X2]F[dL]L[Hyp][NMeL]DRI-NH2)	< 1 µM
CCCCCCCC(=O)N1CCC[C@H](C(=O)N[C@@H](Cc2ccc(Cl)c(Cl)c2)C(=O)N[C@H](CC(C)C)C(=O)N[C@@H](CC(C)C)C(=O)N2C[C@H](O)C[C@H]2C(=O)N(C)[C@@H](CC(C)C)C(=O)N[C@@H](CC(=O)O)C(=O)N2CCC[C@H]2C(=O)NC2CCCCCC2)C1 [JAL-1599, Occ-Sni-Eaa-leu-Leu-Hyp-Nml-Asp-Pro-Che] (Octanoyl-[X2][Phe(3,4-Cl2)][dL]L[Hyp][NMeL]DP-NHcycloheptyl)	< 1 µM
CCCCCCCC(=O)N[C@H](C)C(=O)N[C@@H](Cc1ccc(Br)cc1)C(=O)N[C@H](CCCNC(=N)N)C(=O)N[C@@H](CC(C)C)C(=O)N1C[C@H](O)C[C@H]1C(=O)N[C@@H](CC(C)C)C(=O)N[C@@H](CC(=O)O)C(=O)N[C@@H](CCCNC(=N)N)C(=O)N[C@H](C(N)=O)[C@@H](C)CC [JAL-1116, Occ-ala-Pbf-arg-Leu-Hyp-Leu-Asp-Arg-Ile-NH2] (HELM PEPTIDE1{[CCCCCCCC(=O)[*:2]].[dA].[O=C([C@H](Cc1ccc(Br)cc1)N[*:1])[*:2]].[dR].L.[Hyp].L.D.R.I.[am]}$$$$V2.0)	< 1 µM
CCCCCCCC(=O)N1CCC[C@H](C(=O)N[C@@H](Cc2ccccc2)C(=O)N[C@H](CC(C)C)C(=O)N[C@@H](CC(C)C)C(=O)N2C[C@H](NC(=O)CCN)C[C@H]2C(=O)N(C)[C@@H](CC(C)C)C(=O)N[C@@H](CC(=O)O)C(=O)N[C@@H](CCCNC(=N)N)C(=O)N[C@H](C(N)=O)[C@@H](C)CC)C1 [JAL-1323, Occ-Sni-Phe-leu-Leu-Tap(Bal)-Nml-Asp-Arg-Ile-NH2] (Octanoyl-[X2]F[dL]L[X5][NMeL]DRI-NH2)	< 1 µM
CCCCCCCC(=O)N1CCC[C@H](C(=O)N[C@@H](Cc2ccccc2)C(=O)N[C@H](CCCCN(C)C)C(=O)N[C@@H](CC(C)C)C(=O)N2C[C@H](O)C[C@H]2C(=O)N(C)[C@@H](CC(C)C)C(=O)N[C@@H](CC(=O)O)C(=O)N[C@@H](CCCNC(=N)N)C(=O)NC2CCCCCC2)C1 [JAL-1777, Occ-Sni-Phe-lys(Me2)-Leu-Hyp-Nml-Asp-Arg-Che] (Octanoyl-[X2]F[dLys(Me2)]L[Hyp][NMeL]DR-NHcycloheptyl)	< 1 µM
CCCCCCCC(=O)N1CCC[C@H](C(=O)N[C@@H](Cc2ccccc2)C(=O)N[C@H](CC(C)C)C(=O)N[C@@H](CC(C)C)C(=O)N2C[C@H](O)C[C@H]2C(=O)N(C)[C@@H](CC(C)C)C(=O)N[C@H](C(=O)N[C@@H](CCCNC(=N)N)C(=O)NC2CCCCCC2)[C@@H](C)O)C1 [JAL-1753, Occ-Sni-Phe-leu-Leu-Hyp-Nml-Thr-Arg-Che] (Octanoyl-[X2]F[dL]L[Hyp][NMeL]TR-NHcycloheptyl)	< 1 µM
CCCCCCCC(=O)N1CCC[C@H](C(=O)N[C@@H](Cc2ccccc2)C(=O)N[C@H](CC(C)C)C(=O)N[C@@H](CC(C)C)C(=O)N2C[C@H](NCCN)C[C@H]2C(=O)N(C)[C@@H](CC(C)C)C(=O)N[C@@H](CC(=O)O)C(=O)N[C@@H](CCCNC(=N)N)C(=O)NC2CCCCCC2)C1 [JAL-1681, Occ-Sni-Phe-leu-Leu-Tap(Ae)-Nml-Asp-Arg-Che] (Octanoyl-[X2]F[dL]L[X3][NMeL]DR-NHcycloheptyl)	< 1 µM
CCCCCCCC(=O)N[C@H](C)C(=O)N[C@@H](Cc1ccccc1)C(=O)N[C@H](CC(C)C)C(=O)N[C@@H](CC(C)C)C(=O)N1C[C@H](O)C[C@H]1C(=O)N(C)[C@@H](CC(C)C)C(=O)N[C@@H](CC(=O)O)C(=O)N[C@@H](CCCNC(=N)N)C(=O)NC(CC)(CC)C(N)=O [JAL-1416, Occ-ala-Phe-leu-Leu-Hyp-Nml-Asp-Arg-Deg-NH2] (HELM PEPTIDE1{[CCCCCCCC(=O)[*:2]].[dA].F.[dL].L.[Hyp].[meL].D.R.[CCC(CC)(N[*:1])C(=O)[*:2]].[am]}$$$$V2.0)	< 1 µM
CC[C@H](C)[C@H](NC(=O)[C@H](CCCNC(=N)N)NC(=O)[C@H](CC(=O)O)NC(=O)[C@H](CC(C)C)N(C)C(=O)[C@@H]1C[C@@H](O)CN1C(=O)[C@H](CC(C)C)NC(=O)[C@@H](CC(C)C)NC(=O)[C@H](Cc1ccccc1)NC(=O)[C@H]1CCCN(C(=O)CCCCc2ccccc2)C1)C(N)=O [JAL-1606, 1320-Sni-Phe-leu-Leu-Hyp-Nml-Asp-Arg-Ile-NH2] (HELM PEPTIDE1{[O=C(CCCCc1ccccc1)[*:2]].[O=C([C@H]1CCCN([*:1])C1)[*:2]].F.[dL].L.[Hyp].[meL].D.R.I.[am]}$$$$V2.0)	< 1 µM
CCCCCCCC(=O)N1CCC[C@H](C(=O)N[C@@H](Cc2ccccc2)C(=O)NC2(C(=O)N[C@@H](CC(C)C)C(=O)N3C[C@H](N)C[C@H]3C(=O)N(C)[C@@H](CC(C)C)C(=O)N[C@@H](CC(=O)O)C(=O)N[C@@H](CCCNC(=N)N)C(=O)N[C@H](C(N)=O)[C@@H](C)CC)CCNCC2)C1 [JAL-1351, Occ-Sni-Phe-Apc-Leu-Tap-Nml-Asp-Arg-Ile-NH2] (Octanoyl-[X2]F[Api]L[Pro(4R-NH2)][NMeL]DRI-NH2)	< 1 µM
CCCCCCCC(=O)N1CCC[C@H](C(=O)N[C@@H](Cc2ccccc2)C(=O)N[C@H](CC(C)C)C(=O)N[C@@H](CC(C)C)C(=O)N2C[C@H](O)C[C@H]2C(=O)N(C)[C@@H](CC(C)C)C(=O)N[C@@H](CC(=O)O)C(=O)N[C@@H](CCCNC(=N)N)C(=O)N(C)[C@H](C(N)=O)[C@@H](C)CC)C1 [JAL-1569, Occ-Sni-Phe-leu-Leu-Hyp-Nml-Asp-Arg-Nmi-NH2] (HELM PEPTIDE1{[CCCCCCCC(=O)[*:2]].[O=C([C@H]1CCCN([*:1])C1)[*:2]].F.[dL].L.[Hyp].[meL].D.R.[meI].[am]}$$$$V2.0)	< 1 µM
CCCCCCCC(=O)N1CCC[C@H](C(=O)N[C@@H](Cc2cccc(Cl)c2)C(=O)N[C@H](CC(C)C)C(=O)N[C@@H](CC(C)C)C(=O)N2C[C@H](O)C[C@H]2C(=O)N(C)[C@@H](CC(C)C)C(=O)N[C@@H](CC(=O)O)C(=O)N[C@@H](CCCNC(=N)N)C(=O)N[C@H](C(N)=O)[C@@H](C)CC)C1 [JAL-1618, Occ-Sni-Mcf-leu-Leu-Hyp-Nml-Asp-Arg-Ile-NH2] (Octanoyl-[X2][Phe(3-Cl)][dL]L[Hyp][NMeL]DRI-NH2)	< 1 µM
